The results in this text go back to patent US9034863B2, “Compositions and methods for inhibiting entry of a hepatic virus” (The Board of Trustees of the University of Illinois, priority 2008, dated 2015).

In the assay the test system is HCV-JFH-1. Nature of the assay: Chronic HCV-JFH-1 infection of Huh7-1 cells, inhibitor combinations, RT-qPCR 24-96 h (FIG. 3-5). Type of assay: cell-based, Hepatitis C virus (HCV). As to the method:
RT-qPCR analysis of intracellular HCV RNA levels in Huh7 cultures mock-treated, treated with ezetimibe (30 μM), PI (200 nM), IFN-α (100 U/ml), or indicated combinations thereof (n=3). Data presented are representative of multiple independent experiments.
FIG. 4A, Chronically infected Huh7-1 cell cultures (n=3) treated with ezetimibe (E), naringenin (N), interferon α (I), or combinations thereof, were harvested at 24, 48, 72 or 96 hours post-treatment, intracellular HCV levels were quantified by RT-qPCR, and are presented as HCV copies/μg RNA. FIG. 4B, Chronically infected Huh7-1 cell cultures (n=3) treated with ezetimibe (E), ferristatin (T), interferon α (I), or combinations thereof, were harvested at 24, 48, 72 or 96 hours post-treatment, intracellular HCV levels were quantified by RT-qPCR, and are presented as HCV copies/μg RNA.
Shown are the results of RT-qPCR analysis of intracellular HCV RNA levels in Huh7 cultures mock-treated, treated with ezetimibe (30 μM), polymerase inhibitor, RG7128 (1 μM), or a combination thereof (n=3).
For experiments analyzing the activity of ezetimibe in combination with a protease inhibitor, Huh7-1 cells were infected with HCV-JFH-1 and allowed to reach steady state levels of infection. The HCV-infected cells were seeded in a 96-well plate and treated with the following: medium alone, 30 μM ezetimibe, 200 nM ITMN5537, 100 μ/ml IFN-α, and combinations of the above drugs at the specified concentrations. Medium and drugs were replaced every 24 hours. Triplicate wells were harvested at 24, 48, 72 or 96 hours post-treatment, in 200 μl/well of 1×ABI lysis buffer and stored at −80° C. until RNA extraction.
Therefore, the therapeutic potential of an IFN-free antiviral cocktail was also investigated, using ezetimibe in combination with other direct acting inhibitors of HCV amplification, specifically an inhibitor of the HCV NS3/4A protease (ITMN 5537; Intermune, Brisbane, Calif.). Huh7-1 cells were infected with HCV-JFH-1 and allowed to reach steady state levels of infection. Cells were monotreated with protease inhibitor (PI) or ezetimibe or IFN alone or treated with combinations of PI+ezetimibe or PI+IFN or IFN+ezetimibe or a combination of all three inhibitors. Samples were harvested at 24, 48, 72 or 96 hours post-treatment, the intracellular RNA was extracted and RT-qPCR performed to quantify HCV copies.
Thus, parallel cultures of chronically infected Huh7-1 cells were established and subsequently treated with ezetimibe, naringenin or IFN-α, either alone or in combination. Treatments were replenished every 24 hours. Triplicate cultures of each treatment condition were harvested at 24, 48, 72 or 96 hours post-treatment and intracellular HCV levels were quantified by RT-qPCR (FIG. 4A). […] Thus, no evidence of synergy was observed when IFN-α was combined with an egress inhibitor that only blocks cell-free spread.
As an alternative method of determining the therapeutic importance of inhibiting HCV cell-to-cell spread, an inhibitor to TfR1 was used. TfR1 has also been identified as another host cell factor that is involved in cell-free entry of HCV into cells, but is not required for cell-to-cell-mediated HCV entry. Thus, unlike ezetimibe which inhibits both cell-free and cell-to-cell HCV spread, the TfR1 inhibitor, ferristatin, only blocks cell-free virus spread. Again, chronically infected Huh7-1 cell cultures were established and treated with ezetimibe (30 μM), ferristatin (50 μM), or IFN-α (100 U/ml), either alone or in combination and treatments were replenished every 24 hours. Intracellular HCV copies were quantified from triplicate cultures by RT-qPCR at 24, 48, 72 or 96 hours post-treatment (FIG. 4B).
Huh7-1 cells were infected with HCV-JFH-1 and allowed to reach steady state levels of infection. Cells were monotreated with HCV polymerase inhibitor RG7128 (1 μM) or ezetimibe (30 μM) alone or treated with a combination of RG7128 and ezetimibe. […]
For orientation: Quantitative PCR measures a nucleic acid by following its amplification.

On to `O=C1[C@H](CC[C@H](O)c2ccc(F)cc2)[C@@H](c2ccc(O)cc2)N1c1ccc(F)cc1` [ezetimibe, 1-(4-fluorophenyl)-(3R)-[3-(4-fluorophenyl)-(3S)-hydroxypropyl]-(45)-(4-hydroxyphenyl)-2-azetidinone], for which, where the note is “RG7128 1 μM, ezetimibe 30 μM, normalized to Mock”, the “reduction of HCV levels (FIG. 5)” value was “did not reduce HCV levels”. For the same compound, the “reduction of HCV levels (FIG. 3)” value (ezetimibe 30 μM, PI 200 nM, IFN-α 100 U/ml) is reported as “did not reduce HCV levels”. Also, the “decrease in intracellular HCV load (FIG. 4B)” value (ezetimibe 30 μM, ferristatin 50 μM, IFN-α 100 U/ml) was “neither ezetimibe nor ferristatin alone reduced intracellular HCV load”. For the same compound, where the note is “ezetimibe, naringenin, IFN-α alone or in combination”, the “reduction of HCV copies (FIG. 4A)” value is listed as “did not reduce HCV levels”.
For `O=C1C[C@@H](c2ccc(O)cc2)Oc2cc(O)cc(O)c21` [naringenin], the “increase in intracellular HCV copies (FIG. 4A)” value (naringenin alone) was “about 50%”.
